Laboratory results taken from US20220296680A1, “TREATMENT AND PREVENTION OF CARDIORENAL DAMAGE” (Oslo Universitetssykehus HF, priority 2021, published 2022).

Legend:
ZSF1-Ob rats = experiment: Interventional study in pre-HFpEF ZSF1-Ob rats (obesity, diabetes, hypertension, diastolic dysfunction); assay type: in vivo, rat
Experimental: A hybrid rat that was a cross between a ZDF female and an SHHF male was utilized.
Briefly, we performed an interventional study in pre-HFpEF rats (15 weeks old) affected by obesity, diabetes, hypertension, diastolic dysfunction, and administered either vehicle, VASTIRAS™ (proANP31-67; VAS; 50 ng/Kg/day administered subcutaneously via Alzet osmotic pump), ENTRESTO™ (ENT; 68 mg/Kg/day administered orally via gavage), or VAS+ENT (VAS/ENT).

[1] = test system: prostaglandin E2 (PGE2) formation in the kidney; settings: Chiou & Vesely 1995; cited from earlier work
[2] = test system: ischemia-induced acute tubular necrosis and renal failure; settings: Recombinant proANP31-67; Clark et al. 2000; cited from earlier work
[3] = test system: patients with congestive heart failure; settings: Delacroix et al. 2016; cited from earlier work
[4] = test system: neprilysin and other endopeptidases; settings: cited from earlier work
[5] = in vivo; cited from earlier work
[6] = ZSF1-Ob rats, autopsy, VAS 50 ng/Kg/day sc, ENT 68 mg/Kg/day oral, FIGS. 3-4
[7] = ZSF1-Ob rats, cardiac ultrasound

Substance: proANP31-67 (EVVPPQVLSEPNEEAGAALSPLPEVPPWTGEVSPAQR) [VAS]
- Elevated blood pressure (ZSF1-Ob rats; ZSF1-Ob rats treated from 15 weeks old, assessed at 25 weeks-old, VAS 50 ng/Kg/day sc, ENT 68 mg/Kg/day oral gavage, FIGS. 5-6): not affected
- atria weight (AW)/TL (ZSF1-Ob rats; [6]): tended to decrease
- body weight (BW) (ZSF1-Ob rats; [6]): tended to decrease
- heart weight (HW)/tibia length (TL) (ZSF1-Ob rats; [6]): tended to decrease
- kidney weight (KW)/TL (ZSF1-Ob rats; [6]): tended to decrease
- cardiac output (ZSF1-Ob rats; [7]): improved
- global longitudinal strain (GLS) (ZSF1-Ob rats; [7]): tended to increase
- renal vascularity (ZSF1-Ob rats; ZSF1-Ob rats, renal ultrasound, FIGS. 7-13): preserved
- prostaglandin E2 (PGE2) formation in the kidney [1]: stimulate
- ischemia-induced acute tubular necrosis and renal failure [2]: protect
- treatment for renal impairment in patients with congestive heart failure [3]: safe and effective
- degradation by neprilysin and other endopeptidases [4]: resistant
- excretion in urine [5]: excreted largely intact
